According to US8835466B2, “Synthesis and uses of pyroglutamic acid derivatives” (Prodimed, S.A., priority 2006, dated 2014):
“And” between values parts separate entries of the source, which are not always exact repeats. Identical values can stand only once. Like-named read-outs stand apart in the source and are kept apart here.

Experiments:
[1] = system: KLN 205 (lung carcinoma); experiment: Effect of isomer 4 (9d) on tumour growth, KLN 205 (Example 10); assay type: in vivo; conditions: KLN 205 (high dose lung carcinoma); DBA/2NCrI mice; 260 ng/mice i.p. days 6, 7 and 14
Procedure: (§1) The following assays were made in order to check the effect of isomer 4 (9d) on different tumours following methods and materials analogous to those used in examples 8 and 9, In all cases sterile physiologic saline (Grifols, Barcelona, Spain) was used as placebo. Isomer 4 (9d) was tested at the dose levels indicated in Table 13 on days 6, 7 and 14 after tumour inoculation. In all cases the vehicle was physiologic saline and the treatments were given by intraperitoneal route. The volume inoculated was 0.2 mL/animal.

[2] = system: CT26.CL25 (colon carcinoma); experiment: Effect of isomer 4 (9d) on tumour growth, CT26.CL25 (Example 10); assay type: in vivo; conditions: CT26.CL25 (Low dose colon carcinoma); Balbc/cByl mice; 250 ng/mice i.p. days 6, 7 and 14
Procedure: as §1

[3] = system: Lewis (lung carcinoma); experiment: Effect of isomer 4 (9d) on tumour growth, Lewis (Example 10); assay type: in vivo; conditions: Lewis (low dose lung carcinoma); C57BL/6NCrI mice; 260 ng/mice i.p. days 6, 7 and 14
Procedure: as §1

[4] = system: CT26.wt (colon carcinoma); experiment: Effect of isomer 4 (9d) on tumour growth, CT26.wt (Example 10); assay type: in vivo; conditions: CT26.wt (high dose colon carcinoma); Balbc/cByl mice; 250 ng/mice i.p. days 6, 7 and 14
Procedure: as §1

[5] = system: CD11b and Ly6G positive leukocyte populations; experiment: Phenotype leukocyte analysis by flow cytometry (CD11b, Ly6G) in peripheral blood (Example 16); assay type: in vivo, Balb/c mice
Procedure: This Example was carried out with the aim at assessing eventual differences in the leukocyte population percentage among the treated mice by flow cytometry. The counts were carried out by using a flow cytometer after labelling membrane proteins (CD11B and Ly6G) with specific antibodies to said proteins. CD11B (also known as Mac-1) marker is expressed in monocyte populations whereas Ly6G (also known as GR-1) is expressed in granulocyte populations. Both markers (CD11b and Ly6G) are expressed in neutrophile populations.
Isomer 4 (compound 9d) at 65 μg/mL in sterile physiological saline.
Equipment Laminar flood hood, Flow cytometer, Adjustable pipettes, Sterile syringes, Sterile needles, EDTA stelile tubes, Plastic tubes. Reagents • Anaesthetic solution • Sterile PBS (Sigma, St. Louis, Mo., USA) • Physiological saline (Grifols, Barcelona, Spain) • Rat anti-mouse CD11b-PE (Beckman Coulter, Fullerton, Calif., USA) • Rat anti-mouse Ly6G-FITC (Beckman Coulter, Fullerton, Calif., USA) • Optylise C (Beckman Coulter, Fullerton, Calif., USA) Dose, Vehicle, Route and Volume Administration Dose Isomer 4 (compound 9d) was tested at the dose levels of 250 ng administered on days 0, and 7. Vehicle The vehicle in which Isomer 4 was diluted is physiological saline. Administration Route and Volume
The treatments were given by intraperitoneal route. The volume inoculated was 200 μl/animal.
Balb/c mice were distributed into 2 experimental groups:
Three days after the last dose of the treatment, murine blood was isolated. It was obtained directly from intracardiac punction. Previously, mice were anesthetized intramuscularly.
Blood was mixed with the monoclonal antibodies described above.
After 20 minutes of incubation, Optylise C solution was added into the samples to lise erythrocytes population.
Finally, samples were diluted ½ with 1× sterile PBS and checked by flow cytometry.
Percentages of each population analyzed were expressed as single values and as the mean±SD from each experimental group.

[6] = system: healthy mice; assay type: in vivo; conditions: for WEIGHT LOSS: weight, MEAN / WEIGHT LOSS: weight, MEDIAN: n 5
Procedure: This assay was made in order to perform a preliminary study to address the toxic effect of Isomer 4 (9d) used at a high dose on healthy mice. Its eventual toxicity will be compared with placebo.
Isomer 4 (9d) at 0.7 mg/mL in sterile physiological saline.
The vehicle in which Isomer 4 was diluted was sterile physiological saline for injection (Grifols, Barcelona, Spain) and sterile distilled water for injection (Grifols, Barcelona, Spain)
The treatments were given i.p. or s.c.
Every mouse was observed daily during 10 days.
Three measures were performed:
3. Weight. This was measured and expressed in grammes.
4. Lethality. This was expressed as percentage of survival.
5. Toxicity. This was checked on alive mice for the following parameters and score criteria:
A case-control study was performed with treated and control mice in order to determine whether differences between Isomer 4 and administration of placebo were present. The U-test of Mann Withney was chosen for being one of the better known non-parametrical tests, anyway, results for this test are equivalent both to those of Wilcoxon's sum of ranges and Kruskal-Wallis two-groups test.

[7] = Balb/C mice, two doses (once per week) 250 ng i.p., flow cytometry three days after the last dose
[8] = group mean, n = 4, 250 ng i.p. on days 0 and 7, blood three days after the last dose
[9] = individual mice, 250 ng i.p. on days 0 and 7, blood three days after the last dose, listed as 9d
[10] = Group A1, 1.25 mg i.p., C57BL/6NCrI, day 0 after the beginning of the treatment
[11] = Group A1, 1.25 mg i.p., C57BL/6NCrI, day 1 after the beginning of the treatment
[12] = Group A1, 1.25 mg i.p., C57BL/6NCrI, day 2 after the beginning of the treatment
[13] = Group A1, 1.25 mg i.p., C57BL/6NCrI, day 3 after the beginning of the treatment
[14] = Group A1, 1.25 mg i.p., C57BL/6NCrI, day 4 after the beginning of the treatment
[15] = Group A1, 1.25 mg i.p., C57BL/6NCrI, day 5 after the beginning of the treatment
[16] = Group A1, 1.25 mg i.p., C57BL/6NCrI, day 6 after the beginning of the treatment
[17] = Group A1, 1.25 mg i.p., C57BL/6NCrI, day 7 after the beginning of the treatment
[18] = Group A1, 1.25 mg i.p., C57BL/6NCrI, day 8 after the beginning of the treatment
[19] = Group A1, 1.25 mg i.p., C57BL/6NCrI, day 9 after the beginning of the treatment
[20] = Group A1, 1.25 mg i.p., C57BL/6NCrI, day 10 after the beginning of the treatment

## Br.N[C@]1(C[n+]2ccccc2)C[C@H](C(=O)O)NC1=O.[Br-] (single isomer, unassigned; isomer 4) [isomer 4, 3S,5R-1-(3-Amino-5-carboxy-2-oxopyrrolidin-3-ylmethyl)pyridinium bromide hidrobromide]
[1]
  Tumour growth inhibition?: YES
[2]
  Tumour growth inhibition?: YES
[3]
  Tumour growth inhibition?: YES
[4]
  Tumour growth inhibition?: YES
[5]; [7]
  CD11b positive cells in peripheral blood compared with control mice: increment
  CD11b+Ly6G positive cells in peripheral blood compared with control mice: increment
  Ly6G positive cells in peripheral blood compared with control mice: increment
[5]; [8]
  CD11b+ cells, PBL (Peripheral Blood), flow cytometry, Media: 36.95%
  CD11b+Ly6G+ cells, PBL (Peripheral Blood), flow cytometry, Media: 31.05%
  Ly6G+ cells, PBL (Peripheral Blood), flow cytometry, Media: 34.775%
[5]; [9]
  CD11b+ cells, PBL (Peripheral Blood), flow cytometry: 35.5% and 44% and 35.4% and 32.9%
  CD11b+Ly6G+ cells, PBL (Peripheral Blood), flow cytometry: 29.7% and 32.3% and 28.5% and 33.7%
  Ly6G+ cells, PBL (Peripheral Blood), flow cytometry: 27% and 37.6% and 33.3% and 41.2%
[6]; C57BL/6 mice, every day scored over 10 days
  Differences on weight between groups (Isomer 4 vs placebo), p (Mann-Whitney U test): > 0.05
[6]; Group A1, 1.25 mg i.p., C57BL/6NCrI, individual animals 1-5, day 8 after the beginning of the treatment
  WEIGHT LOSS: weight of each mouse: 26 g (3×) and 20 g and 28 g
[6]; [10]
  WEIGHT LOSS: weight, MEAN: 26.4 g
  WEIGHT LOSS: weight, MEDIAN: 27 g
[6]; [11]
  WEIGHT LOSS: weight, MEAN: 25.4 g
  WEIGHT LOSS: weight, MEDIAN: 26 g
[6]; [12]
  WEIGHT LOSS: weight, MEAN: 25.4 g
  WEIGHT LOSS: weight, MEDIAN: 26 g
[6]; [13]
  WEIGHT LOSS: weight, MEAN: 26 g
  WEIGHT LOSS: weight, MEDIAN: 26 g
[6]; [14]
  WEIGHT LOSS: weight, MEAN: 25.8 g
  WEIGHT LOSS: weight, MEDIAN: 26 g
[6]; [15]
  WEIGHT LOSS: weight, MEAN: 24.8 g
  WEIGHT LOSS: weight, MEDIAN: 26 g
[6]; [16]
  WEIGHT LOSS: weight, MEAN: 25 g
  WEIGHT LOSS: weight, MEDIAN: 26 g
[6]; [17]
  WEIGHT LOSS: weight, MEAN: 25 g
  WEIGHT LOSS: weight, MEDIAN: 26 g
[6]; [18]
  WEIGHT LOSS: weight, MEAN: 25.2 g
  WEIGHT LOSS: weight, MEDIAN: 26 g
[6]; [19]
  WEIGHT LOSS: weight, MEAN: 25 g
  WEIGHT LOSS: weight, MEDIAN: 26 g
[6]; [20]
  WEIGHT LOSS: weight, MEAN: 24.8 g
  WEIGHT LOSS: weight, MEDIAN: 26 g
[6]; Group A1, dose exceeded 50,000-fold the total amount of the therapeutic dose
  Deaths or toxicity (systemic), in words: No deaths or toxicity were observed
[6]; Group C1, dose exceeded 500-fold the normal concentration of the therapeutic dose
  Local toxicity, in words: Local toxicity was neither observed
[6]; doses that greatly exceed its therapeutic range
  Tolerance by mice, in words: well tolerated
